According to ChEMBL document CHEMBL1201862, “PubChem BioAssay data set” (2004):
Activity calls are given as the source filed them.

Columns and labels:
[1] = biological target: T1, Polyadenylate-binding protein 1 (Homo sapiens, UniProt P11940); assay: PABP1 MLLE–PAM2 binding inhibitor potency, dose response, biochemical, fluorescence polarization, FITC-PAM2 peptide (AID 602259); assay type: functional; settings: read-out: IC50_Mean
[2] = Luminescence Cell-Based Dose Retest to Confirm Inhibitors of Cancer Stem Cells. [Related pubchem assays (depositor defined):AID2717, AID2721]; assay type: functional; settings: Homo sapiens
[3] = biological target: T1, Polyadenylate-binding protein 1; assay: PABP1 MLLE–PAM2 interaction inhibitors, dose response, miRNA deadenylation inhibitor project, biochemical, fluorescence polarization, Cy5-PAM2 peptide, secondary (AID 602260); assay type: functional; settings: read-out: IC50_Mean
[4] = cytotoxicity in HEK-293T cells, dose response, cytotoxicity control for BCR NF-kB inhibitor project, luminescence, B-cell screen hits (AID 489021); assay type: functional, cell-based;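 also: HEK-293T cells carrying an NF-kB luciferase reporter; cells exposed to compound for about 14 hours before viability readout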
Nonstructural protein 1 = Nonstructural protein 1 (Influenza A virus, UniProt Q194T2); assay type: functional, Influenza A virus (A/California/07/2009(H1N1))
Sequence of Nonstructural protein 1 (Q194T2 whole entry): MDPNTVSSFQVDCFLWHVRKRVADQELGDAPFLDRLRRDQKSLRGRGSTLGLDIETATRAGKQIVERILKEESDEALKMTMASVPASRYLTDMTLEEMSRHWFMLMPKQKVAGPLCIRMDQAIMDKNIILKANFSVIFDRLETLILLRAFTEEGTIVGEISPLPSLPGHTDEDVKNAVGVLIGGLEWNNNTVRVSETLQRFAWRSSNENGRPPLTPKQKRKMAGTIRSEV

[5] = biological target: T2, Corticotropin-releasing factor receptor 2/Corticotropin-releasing factor-binding protein (Homo sapiens, UniProt P24387+Q13324); assay: Dose Response confirmation of uHTS hits for small molecule antagonists of the CRF-binding protein and CRF-R2 receptor complex.; assay type: functional; settings: read-out: IC50_Mean
T2 sequence (Q13324 whole entry): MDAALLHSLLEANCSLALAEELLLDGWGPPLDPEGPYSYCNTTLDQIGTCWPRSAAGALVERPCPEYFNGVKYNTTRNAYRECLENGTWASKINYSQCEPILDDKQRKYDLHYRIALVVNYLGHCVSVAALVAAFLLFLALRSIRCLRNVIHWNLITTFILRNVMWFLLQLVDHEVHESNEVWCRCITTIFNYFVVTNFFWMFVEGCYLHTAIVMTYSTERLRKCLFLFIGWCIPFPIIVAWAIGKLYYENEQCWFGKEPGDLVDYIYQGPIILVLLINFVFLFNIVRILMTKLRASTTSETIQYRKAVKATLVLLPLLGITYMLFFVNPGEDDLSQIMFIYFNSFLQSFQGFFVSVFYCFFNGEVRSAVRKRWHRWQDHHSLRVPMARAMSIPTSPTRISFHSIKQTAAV
T2 sequence (P24387 whole entry): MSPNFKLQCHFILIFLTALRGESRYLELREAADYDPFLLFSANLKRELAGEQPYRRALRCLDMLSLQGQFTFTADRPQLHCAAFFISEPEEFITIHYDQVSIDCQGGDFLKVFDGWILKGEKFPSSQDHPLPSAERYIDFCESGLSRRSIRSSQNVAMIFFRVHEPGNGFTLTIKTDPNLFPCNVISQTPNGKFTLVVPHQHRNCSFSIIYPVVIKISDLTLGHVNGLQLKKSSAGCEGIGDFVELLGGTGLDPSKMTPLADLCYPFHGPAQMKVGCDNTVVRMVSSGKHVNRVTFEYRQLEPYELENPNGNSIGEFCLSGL

H9c2 = assay: cells; assay type: functional, cell-based; settings: Rattus norvegicus, H9c2, Myocardium;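 also: confirmatory concentration-response retest of ultra-high-throughput screening hits for modulation of myocardial damage; cell death induced by hydrogen peroxide oxidative stress; compound pretreatment for 60 min then peroxide exposure for 2 h; potency is for protecting the cells against peroxide damage rather than for killing them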
[6] = biological target: T2, Corticotropin-releasing factor receptor 2/Corticotropin-releasing factor-binding protein; assay: activators of CRF receptor 2 with binding protein – uHTS hits, confirmation (AID 602473); assay type: functional; settings: read-out: EC50_Mean
[7] = cytotoxicity toward NIH3T3 fibroblasts, dose response, counter-screen, cell-based, ATP luminescence, mouse fibroblasts (AID 2010); assay type: functional;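 also: cells exposed to compound for about 90 hours before reading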
[8] = inhibitors of SNCA 5'UTR-driven reporter translation, confirmation, H4 neuroglioma cells, luminescence (AID 1988); assay type: functional, cell-based
INS1 = assay: beta cell apoptosis inhibitors, cytokine rescue, dose response, luminescence, retest (AID 449756); assay type: functional, cell-based; settings: Rattus norvegicus;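 also: cell death triggered by IL-1 beta plus TNF-alpha plus IFN-gamma mixture; protective hits raise ATP signal compared with cytokine alone wells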
[9] = inhibitors of firefly luciferase expression or activity, dose response, H4 neuroglioma cells, luminescence (AID 1990); assay type: functional, cell-based
[10] = Luminescence Cell-Based Dose Response HTS to Identify Inhibitors of 5'UTR Stem-Loop Driven Prion Protein mRNA Translation in H4 Neuroglioblastoma Cells. [Related pubchem assays: 1827 (Project Summary), 1813 (Primary HTS)]; assay type: functional
Streptococcus = assay: Group A Streptococcus viability loss, dose response, counter-screen for streptokinase expression inhibitor project, luminescence, BacTiterGlo (AID 1915); assay type: functional, organism-based;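 also: potency for reduction of bacterial viability or growth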
[11] = microbe, parasite or virus in culture; assay type: functional; settings: Mycobacterium tuberculosis
[12] = inhibitors of intracellular T. cruzi replication, confirmation, NIH3T3 host cells, beta-gal luminescence (AID 2044); assay type: functional, cell-based;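 also: intracellular parasites grown in NIH/3T3 mouse fibroblasts as host cells; luminescent beta-galactosidase reporter signal from transgenic T. cruzi replicating inside host cells; inhibitors lower the luminescence signal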
[13] = system: Streptococcus sp. 'group A'; assay: growth inhibition of control SK(-) GAS strain, dose response, counter-screen for streptokinase expression inhibitor project, luminescence, kanamycin, BacTiterGlo, confirmation (AID 1900); assay type: functional, organism-based
[14] = HEp-2 cell cytotoxicity, dose response, cytotoxicity control for RSV inhibitor project, HTS (AID 2410); assay type: functional; settings: human respiratory syncytial virus
[15] = growth suppression of PTEN-null colon cells, dose response, cell-based, HCT116 PTEN knockout (AID 1047); assay type: functional;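 also: HCT116 colon tumor cells with PTEN knocked out; cells exposed to compound for 60 hours before readout; potency for loss of cell viability measured by luminescence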
[16] = growth suppression of beta-catenin-knockout colon cells, dose response, cell-based, HCT116, human colon tumor (AID 1045); assay type: functional;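 also: HCT116 colon tumor cells with beta catenin knocked out; cells exposed to compound for 60 hours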
Cytochrome P450 2C9 = Cytochrome P450 2C9 (Homo sapiens, UniProt P11712)
Sequence of Cytochrome P450 2C9 (P11712 whole entry): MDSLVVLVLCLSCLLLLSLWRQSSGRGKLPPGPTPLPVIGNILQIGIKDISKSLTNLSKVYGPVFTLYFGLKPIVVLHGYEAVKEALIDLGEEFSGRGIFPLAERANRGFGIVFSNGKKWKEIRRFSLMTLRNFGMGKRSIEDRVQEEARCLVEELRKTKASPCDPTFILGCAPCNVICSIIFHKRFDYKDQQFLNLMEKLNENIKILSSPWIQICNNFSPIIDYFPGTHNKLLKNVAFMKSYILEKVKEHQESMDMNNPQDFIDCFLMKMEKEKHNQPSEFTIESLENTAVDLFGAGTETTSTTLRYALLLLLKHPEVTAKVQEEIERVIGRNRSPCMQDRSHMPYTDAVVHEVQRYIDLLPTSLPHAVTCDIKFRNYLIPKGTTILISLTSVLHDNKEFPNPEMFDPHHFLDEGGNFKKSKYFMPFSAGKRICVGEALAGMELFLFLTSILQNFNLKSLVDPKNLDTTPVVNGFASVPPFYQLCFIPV

Cytochrome P450 1A2 = biological target: T3, Cytochrome P450 1A2 (Homo sapiens, UniProt P05177);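 also: PubChem cytochrome P450 panel assay, CYP1A2 panel member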
T3 sequence (P05177 whole entry): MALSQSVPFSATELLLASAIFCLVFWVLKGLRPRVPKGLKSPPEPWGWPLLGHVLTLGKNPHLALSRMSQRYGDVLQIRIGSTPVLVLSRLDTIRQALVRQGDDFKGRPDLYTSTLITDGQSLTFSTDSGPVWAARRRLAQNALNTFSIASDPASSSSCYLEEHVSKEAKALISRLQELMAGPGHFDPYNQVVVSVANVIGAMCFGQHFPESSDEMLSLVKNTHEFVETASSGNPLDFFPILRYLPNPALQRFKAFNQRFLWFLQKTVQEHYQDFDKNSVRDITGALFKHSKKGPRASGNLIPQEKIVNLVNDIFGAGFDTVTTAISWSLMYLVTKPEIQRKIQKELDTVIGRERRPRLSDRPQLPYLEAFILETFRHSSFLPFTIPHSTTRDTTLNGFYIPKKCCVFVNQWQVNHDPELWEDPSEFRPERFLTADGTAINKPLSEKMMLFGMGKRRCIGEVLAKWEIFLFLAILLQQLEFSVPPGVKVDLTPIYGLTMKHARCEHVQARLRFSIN

T1 sequence (P11940 whole entry): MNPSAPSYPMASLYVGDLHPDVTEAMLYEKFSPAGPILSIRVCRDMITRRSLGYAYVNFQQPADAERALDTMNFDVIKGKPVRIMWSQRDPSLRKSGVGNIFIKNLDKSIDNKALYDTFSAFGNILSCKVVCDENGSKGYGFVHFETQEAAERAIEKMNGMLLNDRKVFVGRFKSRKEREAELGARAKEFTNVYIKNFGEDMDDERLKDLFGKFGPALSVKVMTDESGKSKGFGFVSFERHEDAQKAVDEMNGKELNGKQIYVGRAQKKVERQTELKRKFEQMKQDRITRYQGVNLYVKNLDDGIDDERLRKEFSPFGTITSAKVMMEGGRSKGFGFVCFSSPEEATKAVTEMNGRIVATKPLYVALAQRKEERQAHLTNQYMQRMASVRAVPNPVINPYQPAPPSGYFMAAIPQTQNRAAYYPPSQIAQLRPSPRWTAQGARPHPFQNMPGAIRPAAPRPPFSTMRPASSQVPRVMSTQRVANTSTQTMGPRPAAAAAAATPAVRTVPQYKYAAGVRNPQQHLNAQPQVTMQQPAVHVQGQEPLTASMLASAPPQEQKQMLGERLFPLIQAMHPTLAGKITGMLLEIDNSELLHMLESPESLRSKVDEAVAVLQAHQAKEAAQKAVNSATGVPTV

COc1ccc(Br)cc1C(=O)NC(=S)Nc1cc(-c2nc3ccccc3[nH]2)ccc1C
IC50 [1]: > 66 µM (inactive)
AC50 [2]: > 195 µM (inactive)
IC50 [3]: > 66 µM (inactive)

Cc1c(NC(=O)/C=C/c2cn(-c3ccccc3)nc2-c2ccccc2)c(=O)n(-c2ccccc2)n1C
IC50 [4]: > 80 µM (inactive)

COc1ccc(OC)c(S(=O)(=O)Nc2ccc(-c3ccc4nnc(C)n4n3)cc2)c1
IC50 [4]: > 80 µM (inactive)

NC(=S)NN=Cc1nccc2ccccc12
IC50 (Nonstructural protein 1): 2.03 µM (active)

O=C(c1cc2nc(-c3ccccc3)cc(-c3ccccc3)n2n1)N1CCN(C(=O)c2ccco2)CC1
IC50 [5]: > 47.1 µM (inactive)
IC50 (H9c2): > 79 µM (inactive)
IC50 [4]: 72.3 µM (inactive)
EC50 [6]: > 53 µM (inactive)

Cc1ccc(C2(c3ccc(C)cc3)CC2C(=O)Nc2ccc([N+](=O)[O-])cc2O)cc1 (stereo not drawn)
EC50 [7]: > 60 µM (not active)
EC50 [8]: 9.29 µM (active)
AC50 (INS1): 3.61 µM (active)
EC50 [9]: 10.1 µM (active)
EC50 [10]: 13.7 µM (active)
EC50 (Streptococcus): 4.17 µM (active)
IC50 [4]: 33.8 µM (inactive)
CC50 [11]: 3.29 µM (active)
EC50 [12]: 3.31 µM (active)
EC50 [13]: 2.34 µM (active)

O=C(Nc1ccc2c(c1)Cc1ccccc1-2)c1cccnc1
CC50 [14]: 20.3 µM (active)

COc1cccc(N=Nc2ccc3ccccc3c2O)c1
IC50 (Nonstructural protein 1): 5.22 µM (active)

Cc1ccc(NC(=O)C2CCC(CNc3c(N4CCC(C)CC4)c(=O)c3=O)CC2)cc1F (stereo not drawn)
EC50 [8]: > 120 µM (not active)
EC50 [9]: 11.5 µM (active)
EC50 [10]: > 120 µM (not active)
IC50 [4]: > 80 µM (inactive)

CC(C)c1ccccc1NC(=O)c1cccc(NC(=O)c2ccccc2)c1
CC50 [14]: 20.3 µM (active)

COC(=O)c1cc(=O)n(Cc2ccc3c(c2)OCO3)/c(=N/c2ccc(F)cc2)s1
EC50 [15]: 27.9 µM (active)
CC50 [14]: 33.2 µM (active)
EC50 [16]: 26.2 µM (active)

COc1ccccc1Nc1ncccc1[N+](=O)[O-]
IC50 (Nonstructural protein 1): 29.9 µM (active)

CC1CCN(CCCNC(=O)COc2cc(=O)n(C)c3ccccc23)CC1
IC50 [4]: > 80 µM (inactive)

COc1ccc(Nc2ccc(S(=O)(=O)N3CCCCC3)cc2[N+](=O)[O-])cc1OC
IC50 (Nonstructural protein 1): 28.8 µM (active)

CC(C)c1ccc(/C=N/N2CCN(c3ccccn3)CC2)cc1
CC50 [14]: 35.7 µM (active)

CN(C)c1ccc([C@@H]2[C@@H]([N+](=O)[O-])[C@H]3C=Cc4ccccc4N3[C@H]2C(=O)c2ccc(Cl)cc2)cc1
IC50 (Nonstructural protein 1): 26.5 µM (active)

COC(=O)c1cc2c(-c3ccccc3)cc3ccccn3c-2c1C(=O)OC
IC50 (H9c2): > 79 µM (inactive)
IC50 (Nonstructural protein 1): 19.2 µM (active)

CC1CCN(C(=S)c2ccc(O)cc2)CC1
IC50 [1]: > 66 µM (inactive)
AC50 (Cytochrome P450 2C9): 39.8 µM (inconclusive)
AC50 (Cytochrome P450 1A2): 14.1 µM (inconclusive)
IC50 [3]: > 66 µM (inactive)

O=C(O)c1cc2c3ccccc3nc-2c[nH]1
IC50 (Nonstructural protein 1): 5.27 µM (active)

Cc1onc(-c2ccccc2Cl)c1C(=O)Nc1sc2c(c1C(N)=O)CCC(C)C2 (stereo not drawn)
CC50 [14]: 19.3 µM (active)
